Data: ChEMBL document CHEMBL1152115, “Optically active fluorinated cyclobutane nucleoside analogs with potent anti-herpes activity” (1993)

Tests used:
Human alphaherpesvirus 1 [1] = test: Effective dose required to inhibit cell growth against HSV-1 (schooler); type: functional; details: read-out: ED50 (the source's name)
Human alphaherpesvirus 2 [2] = test: Effective dose required to inhibit cell growth against HSV-2 (186); type: functional; details: read-out: ED50 (the source's name)
Human alphaherpesvirus 3 [3] = test: Effective dose required to inhibit cell growth against VZV (Ellen); type: functional; details: read-out: ED50 (the source's name)
Human betaherpesvirus 5 [4] = test: Effective dose required to inhibit cell growth against HCMV (AD169); type: functional; details: read-out: ED50 (the source's name)
Human alphaherpesvirus 3 [5] = test: Effective dose required to inhibit cell growth against VZV (Ellen); Value ranges from 25-63; type: functional; details: read-out: ED50 (the source's name)
Human alphaherpesvirus 3 [6] = test: Effective dose required to inhibit cell growth against VZV (Ellen); Value ranges from 88-177; type: functional; details: read-out: ED50 (the source's name)
Human alphaherpesvirus 2 [7] = test: Effective dose required to inhibit cell growth against HSV-2 (186); Value ranges from 88-176; type: functional; details: read-out: ED50 (the source's name)
Human betaherpesvirus 5 [8] = test: Effective dose required to inhibit cell growth against HCMV (AD169); Value ranges from 3.5-35; type: functional; details: read-out: ED50 (the source's name)
Human alphaherpesvirus 3 [9] = test: Effective dose required to inhibit cell growth against VZV (Ellen); Value ranges from 1.8-3.5; type: functional; details: read-out: ED50 (the source's name)
Human alphaherpesvirus 1 [10] = test: Effective dose required to inhibit cell growth against HSV-1 (schooler); Value ranges from 0.7-1.8; type: functional; details: read-out: ED50 (the source's name)
Human alphaherpesvirus 3 [11] = test: Effective dose required to inhibit cell growth against VZV (Ellen); Value ranges from 0.7-1.7; type: functional; details: read-out: ED50 (the source's name)
Human alphaherpesvirus 2 [12] = test: Effective dose required to inhibit cell growth against HSV-2 (186); Value ranges from 0.3-0.7; type: functional; details: read-out: ED50 (the source's name)
Human betaherpesvirus 5 [13] = test: Effective dose required to inhibit cell growth against HCMV (AD169); Value ranges from 18-35; type: functional; details: read-out: ED50 (the source's name)
Human alphaherpesvirus 1 [14] = test: Effective dose required to inhibit cell growth against HSV-1 (schooler); Value ranges from 0.7-1.7; type: functional; details: read-out: ED50 (the source's name)
Human betaherpesvirus 5 [15] = test: Effective dose required to inhibit cell growth against HCMV (AD169); Value ranges from 20-40; type: functional; details: read-out: ED50 (the source's name)
Human alphaherpesvirus 1 [16] = test: microbe, parasite or virus in culture; details: Human alphaherpesvirus 1, read-out: ED50
Human alphaherpesvirus 3 [17] = test: microbe, parasite or virus in culture; details: Human alphaherpesvirus 3, read-out: ED50
Human alphaherpesvirus 2 [18] = test: microbe, parasite or virus in culture; details: Human alphaherpesvirus 2, read-out: ED50

Q: How did the EC50 (Human alphaherpesvirus 1 [1]) turn out when `Nc1ccn([C@@H]2C(F)C(CO)[C@@H]2CO)c(=O)n1` (stereo partly drawn) was run?
A: The EC50 was > 411 µM.

Q: What about the EC50 (Human alphaherpesvirus 2 [2]) of the same compound?
A: Its EC50 is ≥ 411 µM.

Q: What about the EC50 (Human alphaherpesvirus 3 [3]) of the same compound?
A: The EC50 was > 411 µM.

Q: And the EC50 (Human betaherpesvirus 5 [4])?
A: The EC50 was > 411 µM.

Q: `O=c1[nH]c(=O)n([C@@H]2C(F)[C@H](CO)C2CO)cc1/C=C/I` (stereo partly drawn) was tested. Which EC50 (Human alphaherpesvirus 1 [1]) did it give?
A: Its EC50 is > 252 µM.

Q: What about the EC50 (Human alphaherpesvirus 2 [2]) of the same compound?
A: The EC50 was > 252 µM.

Q: And the EC50 (Human alphaherpesvirus 3 [5])?
A: The EC50 was 25 µM.

Q: And the EC50 (Human betaherpesvirus 5 [4])?
A: Its EC50 is > 252 µM.

Q: `Nc1nc(O)c2ncn([C@@H]3C(F)[C@H](CO)C3CO)c2n1` (stereo partly drawn) was tested. Which EC50 (Human alphaherpesvirus 1 [1]) did it give?
A: Its EC50 is 88 µM.

Q: What about the EC50 (Human alphaherpesvirus 3 [6]) of the same compound?
A: The EC50 was 88 µM.

Q: And the EC50 (Human alphaherpesvirus 2 [7])?
A: The EC50 was 88 µM.

Q: What about the EC50 (Human betaherpesvirus 5 [4]) of the same compound?
A: Its EC50 is > 353 µM.

Q: What does the source list for `O=c1[nH]c(=O)n([C@@H]2C(F)[C@H](CO)C2CO)cc1/C=C/Br` (stereo partly drawn)?
A: EC50 (Human alphaherpesvirus 1 [1]): > 286 µM; EC50 (Human alphaherpesvirus 2 [2]): > 286 µM; EC50 (Human alphaherpesvirus 3 [3]): 286 µM; EC50 (Human betaherpesvirus 5 [4]): > 286 µM

Q: `Nc1nc(O)c2ncn([C@@H]3C(F)[C@H](CO)C3CO)c2n1` (mixture of isomers) was tested. Which EC50 (Human alphaherpesvirus 2 [2]) did it give?
A: The EC50 was 0.7 µM.

Q: And the EC50 (Human betaherpesvirus 5 [8])?
A: The EC50 was 3.5 µM.

Q: What about the EC50 (Human alphaherpesvirus 3 [9]) of the same compound?
A: The EC50 was 1.8 µM.

Q: And the EC50 (Human alphaherpesvirus 1 [10])?
A: The EC50 was 0.7 µM.

Q: With `Nc1nc(O)c2ncn([C@@H]3C(F)[C@H](CO)C3CO)c2n1` (single isomer, unassigned; (-)) as the compound, how does the EC50 (Human alphaherpesvirus 3 [11]) read?
A: The EC50 was 0.7 µM.

Q: And the EC50 (Human alphaherpesvirus 2 [12])?
A: The EC50 was 0.3 µM.

Q: What about the EC50 (Human betaherpesvirus 5 [13]) of the same compound?
A: The EC50 was 18 µM.

Q: And the EC50 (Human alphaherpesvirus 1 [14])?
A: The EC50 was 0.7 µM.

Q: For `Nc1nc2c(ncn2COCCO)c(=O)[nH]1` [ACYCLOVIR], which EC50 (Human betaherpesvirus 5 [15]) is on record?
A: The EC50 was 20 µM.

Q: What about the EC50 (Human alphaherpesvirus 1 [16]) of the same compound?
A: Its EC50 is 0.2 µM.

Q: And the EC50 (Human alphaherpesvirus 3 [17])?
A: The EC50 was 2 µM.

Q: What about the EC50 (Human alphaherpesvirus 2 [18]) of the same compound?
A: Its EC50 is 0.4 µM.
